Legend:
[1] = system: subjects with relapsing remitting multiple sclerosis (RRMS); assay: ALLEGRO Phase III trial: patient-reported fatigue and health status (MFIS, SF-36, EQ5D); assay type: in vivo, human; conditions: over 24 months
Procedure: The following assessments were performed at specified time points: • 1. Vital signs were measured at each study visit. • 2. A physical examination is performed at months −1 (screening), 0 (baseline) 1, 3, 6, 12, 18 and 24 (termination/early discontinuation core study). In case of the 6 months extended study, additional examination was performed at month 30 (termination/early discontinuation of extended study). • 3. The following safety clinical laboratory tests were performed: • a. Complete blood count (CBC) with differential—at all scheduled visits. A reticulocyte count was added to the CBC at months 0 (baseline) and 24/30 (termination/early discontinuation). • b. […] Adverse Events (AEs) are monitored throughout the study. • 9. Concomitant medications are monitored throughout the study. • 10. […] MS functional Composite (MSFC) was assessed at months −1 (screening) (three practices for training purposes only), at month 0 (baseline), 6, 12, 18 and 24 (termination/early discontinuation). […] Subject-reported fatigue was assessed by the Modified Fatigue Impact Scale (MFIS) at months 0, 6, 12, 18, and 24 (termination/early discontinuation). […] The general health status was assessed by the EuroQoL (EQ5D) questionnaire at month 0 (baseline) and month 24 (termination/early discontinuation of the study). […]

[2] = system: patients with RRMS; assay: Post hoc analysis of pooled ALLEGRO and BRAVO trials by baseline EDSS subgroup; assay type: in vivo, human; conditions: for Annualized Relapse Rate, Ratio: LAQ 0.6 mg vs PBO
Description: The observed effect of LAQ on Confirmed Disability Progression (CDP) is disproportionately larger than would be predicted by the observed LAQ effect on relapse rate reduction.
ALELGRO and BRAVO trials described above enrolled ambulatory patients with RRMS, aged 18-55 years, with EDSS scores ≦5.5. Patients included in the study had • 1. ≧1 relapse in the previous year, or • 2. 2 relapses in the previous 2 years, or • 3. 1 relapse in the previous 1-2 years and ≧1 GdE lesion in the previous year.
Patients were randomized 1:1 to LAQ 0.6 mg or PBO in the ALLEGRO study; in BRAVO patients were randomized 1:1:1 LAQ 0.6 or PBO or weekly interferon β 1a 30 μg.
This post hoc analysis include patients randomized to LAQ 0.6 mg or PBO only. Endpoints include ARR, time to CDP (defined as an increase from baseline in EDSS score of ≧1 point if baseline EDSS is ≦5, or of ≧0.5 point if baseline EDSS is >5), sustained for 3 or 6 months; and MSFC components including the Timed 25-Foot Walk (T25FW) test.
LAQ vs. […] Adjusted mean z-score differences and 95% CIs were evaluated by ANCOVA.
MRI endpoints included brain atrophy measured percent brain volume change (PBVC), and cumulative numbers of gadolinium-enhancing (GdE) and new T2 lesions at months 12 and 24.

[3] = system: relapsing MS; conditions: cited from earlier work

CCN(C(=O)c1c(O)c2c(Cl)cccc2n(C)c1=O)c1ccccc1 [Laquinimod, laquinimod]
SF-36 physical component summary (PCS) course [1]: remained stable | T25FW time increase after 24 months (adjusted mean) ([2]; baseline EDSS >3): 1.9 s | 9HPT Change from Baseline to Month 24, Adj. Mean Diff. ([2]; baseline EDSS >3.0): −1.590 | Brain Atrophy as defined by PBVC, adjusted mean difference ([2]; baseline EDSS >3.0): 0.39 | Cumulative GdE T1 Lesions at Months 12 and 24, Rate Ratio ([2]; baseline EDSS >3.0): 0.83 | Cumulative New/Enlarging T2 Lesions at Months 12 and 24, Rate Ratio ([2]; baseline EDSS >3.0): 0.75 | Disability as Assessed by MSFC z-Score at Month 24, adjusted mean difference ([2]; baseline EDSS >3.0): 0.25 | PASAT Change from Baseline to Month 24, Adj. Mean Diff. ([2]; baseline EDSS >3.0): 0.586 | Time to 3-month CDP, Hazard Ratio ([2]; baseline EDSS >3.0): 0.60 | Time to 6-month CDP, Hazard Ratio ([2]; baseline EDSS >3.0): 0.47 | Reduction in 6-month CDP ([2]; baseline EDSS >3 (worsening MS), vs PBO): 53% | Reduction of 3-month CDP ([2]; baseline EDSS >3, vs PBO): 40% | Reduction of ARR ([2]; baseline EDSS >3, vs PBO): 25% | Improvement / treatment effect size on the T25FW component ([2]; baseline EDSS >3, vs PBO, 24 months): 59% | Annualized Relapse Rate, Ratio ([2]; baseline EDSS >3.0): 0.75 | T25FW Change from Baseline to Month 24, Adj. Mean Diff. ([2]; baseline EDSS >3.0, listed as LAQ): -2.79 s | T25FW treatment effect among subjects who experienced CDP ([2]; baseline EDSS >3 with CDP, vs PBO): 8.6 s | Treatment differences in T25FW ([2]; baseline EDSS ≦3): No treatment differences | 9HPT Change from Baseline to Month 24, Adj. Mean Diff. ([2]; baseline EDSS ≦3.0): −1.108 | Brain Atrophy as defined by PBVC, adjusted mean difference ([2]; baseline EDSS ≦3.0): 0.34 | Cumulative GdE T1 Lesions at Months 12 and 24, Rate Ratio ([2]; baseline EDSS ≦3.0): 0.66 | Cumulative New/Enlarging T2 Lesions at Months 12 and 24, Rate Ratio ([2]; baseline EDSS ≦3.0): 0.77 | Disability as Assessed by MSFC z-Score at Month 24, adjusted mean difference ([2]; baseline EDSS ≦3.0): −0.02 | PASAT Change from Baseline to Month 24, Adj. Mean Diff. ([2]; baseline EDSS ≦3.0): 0.302 | T25FW Change from Baseline to Month 24, Adj. Mean Diff. ([2]; baseline EDSS ≦3.0): 0.055 s | Time to 3-month CDP, Hazard Ratio ([2]; baseline EDSS ≦3.0): 0.69 | Time to 6-month CDP, Hazard Ratio ([2]; baseline EDSS ≦3.0): 0.60 | Annualized Relapse Rate, Ratio ([2]; baseline EDSS ≦3.0): 0.80 | Development of active MRI lesions [3]: reduce development of active MRI lesions

Source: patent US9662322B2 (TEVA PHARMACEUTICAL INDUSTRIES, LTD., priority 2014, dated 2017)
